Source: patent US4390526A, “Pharmaceutical agents for the treatment of sickle cell disease” (Yeda Research & Development Co. Ltd., priority 1979, dated 1983)
Where a SMILES comes first, the peptide text is derived from it.

Legend:
[1] = test system: erythrocytes; conditions: literature values, Table II; cited from earlier work
[2] = test system: erythrocytes of a sickle cell disease patient; test: Inhibition of sickling; type: cell-based, human; conditions: 30 minutes, deoxygenated with sodium metabisulphite
Description: A venous blood sample was obtained from the anticubital vein of a sickle cell disease patient and washed several times with phosphate buffer saline, pH 7.2, consisting of 145.4 mM NaCl, 4.0 mM KCl, 1.65 mM Na2 HPO4, 0.16 mM KH2 PO4, 0.01 mM MgCl2 and 11.1 mM glucose. The buffy coats were removed by aspiration. […] The mixture was well stoppered, incubated at 37° C. and swirled at about 100 cycles per minute in a controlled environment incubator. The standard control consisted of a 300 μl of a 20% cell suspension in the buffer in which the novel compound was dissolved. After an incubation period, 20 μl of the treated cell suspension was deoxygenated with 20 μl of 2.0% sodium metabisulphite or with nitrogen gas and examined with a Zeiss microscope.
[…] They were deoxygenated with sodium metabisulphite and examined under a Zeiss microscope.

[3] = target: T1, purified HbS (Homo sapiens, UniProt P68871, E7V); test: Determination of antigelling property (modified method of Bookchin et al.); type: biochemical; conditions: deoxygenated with sodium dithionite, 37° C.; antigelling = fluid state for more than 20 minutes
T1 construct: 150 μl of 35% of purified HbS were added and vortexed; from tissue
Description: The antigelling property of the said new class of compounds was determined by a modified method of Bookchin et al. (1967); (see Bookchin et al, J. Biol. Chem., 242, 248-255, 1967). To 10 μl of a solution of the said new class of compounds in a micro test tube, at about 37° C., 150 μl of 35% of purified HbS were added and vortexed. 15 microliters of a 10% sodium dithionite in 0.05 M phosphate buffer, pH 7.2 were added. The mixture was thoroughly mixed and flushed with nitrogen and quickly stoppered. The micro test tube was incubated at 37° C. for 30 minutes and then transferred to 0° C. for 10 minutes and then returned to 37° C. for 30 minutes. A compound was defined as having antigelling properties when the HbS inhibition mixture remained in the fluid state for a period of more than 20 minutes at 37° C.

[4] = test system: erythrocytes; test: Transport of the novel compounds into erythrocytes; type: cell-based, human
Description: As sickle cell disease is caused by a defect of the erythrocytes, in order to study transport of a therapeutic agent for the treatment of the disease into erythrocytes, erythrocytes and no other cells must be used for the transport studies.
Washed erythrocytes were prepared by the method described in Example 2 and used for transport studies. The novel class of compounds were radioactively labelled, using for example, [^14 C]-L-Phe.

| SMILES | Effective Concentration In Vitro (antisickling) [1] [mM] | Percentage of Normal Cells ([2]; 3 mM of the compound) [%] | further results |
| --- | --- | --- | --- |
| O=CC(O)CO (racemic) [DL--Glyceraldehyde] | 20 |  |  |
| CC(C)[C@H](N)C(=O)OCc1ccccc1 [Compound 12, L--Val--OBz] |  | 50 |  |
| N#C[O-].[K+] [Potassium Cyanate] | 100 |  |  |
| CC(=O)Oc1c(Br)cc(Br)cc1C(=O)O [Dibromo aspirin] | 5 |  |  |
| NC(N)=O [Urea] | 100 |  |  |
| CC1(C)CCc2cc(CCCC(=O)O)ccc2O1 [3,4-dihydro-2,2-dimethyl 2H-1 Benzopyridirium-6-butyric acid] | 10 |  |  |
| Cl.N[C@H](Cc1ccccc1)C(=O)OCc1ccccc1 [Compound 16, D--Phe--OBz.HCl] |  | 90 | moles of compound to one mole of HbS at which gelation of HbS is inhibited [3]: 6 moles to one mole HbS |
| Br.N[C@@H](Cc1ccccc1)C(=O)OCc1ccc([N+](=O)[O-])cc1 [Compound 6, L--Phe--OBz (pNO2).HBr] |  | 90 |  |
| Cl.O=C(OCc1ccccc1)[C@@H]1CCCN1 [Compound 4, L--Pro--OBz.HCl] |  | 60 |  |
| Cl.N[C@@H](Cc1ccc(O)cc1)C(=O)OCc1ccccc1 [Compound 2, L--Tyr--OBz.HCl] |  |  | Percentage of Normal Cells ([2]; 0.5 mM of compound): 70% |
| Br.NCC(=O)N[C@@H](Cc1ccccc1)C(=O)OCc1ccccc1 [Compound 10, L--Gly--L--Phe--OBz.HBr] (HELM PEPTIDE1{G.F.[c1ccc(CO[*:1])cc1]}$$$$V2.0) |  | 90 |  |
| Br.O=C(OCc1ccc([N+](=O)[O-])cc1)[C@@H]1CCCN1 [Compound 7, L--Pro--OBz (pNO2).HBr] |  | 80 |  |
| CCCCCCCCCCCCCCCCCCOC(=O)[C@@H](N)Cc1ccc(O)cc1.Cl [Compound 17, L--Tyr--O Octadecyl.HCl, reference compound] |  | 10 |  |
| N[C@@H](Cc1ccccc1)C(=O)NCc1ccccc1 [Compound 11, L--Phe--Benzyl amide] |  | 70 |  |
| O=C(Nc1ccccn1)c1ccccc1.O=C(O)c1ccccc1 [2(Benzoyl amino) pyridinium benzoate] | 50 |  |  |
| Cc1ccc(S(=O)(=O)O)cc1.NC(Cc1c[nH]cn1)C(=O)OCc1ccc([N+](=O)[O-])cc1 [Compound 8, L--His--OBz (pNO2) pTS] |  | 70 |  |
| CC(C)C[C@H](N)C(=O)OCc1ccccc1 [Compound 13, L--Leu--OBz] |  | 55 |  |
| Br.C[C@H](N)C(=O)N[C@@H](Cc1ccccc1)C(=O)OCc1ccccc1 [Compound 9, L--Ala--L--Phe--OBz.HBr] |  | 90 |  |
| Cl.N[C@@H](Cc1ccccc1)C(=O)OCc1ccccc1 [Compound 1, L--Phe--OBz.HCl] |  | 90 | moles of compound to one mole of HbS at which gelation of HbS is inhibited [3]: 6 moles to one mole HbS; transport into erythrocytes [4]: rapidly transported into erythrocytes by a carrier mediated process; Michaelis constant for transport ([4]; 14C-labelled compound, washed erythrocytes): 0.175 mM; PERCENT OF INCORPORATION ([4]; TIME 0): 0%; PERCENT OF INCORPORATION ([4]; TIME 10): 30%; PERCENT OF INCORPORATION ([4]; TIME 20): 70%; PERCENT OF INCORPORATION ([4]; TIME 30): 90%; PERCENT OF INCORPORATION ([4]; TIME 45): 100%; PERCENT OF INCORPORATION ([4]; TIME 60): 90% |
| Cc1ncc(CO)c(C=O)c1O [Pyridoxal] | 20 |  |  |
| COC(=N)CCCCC(=N)OC [Dimethyl Adipimidate] | 10 |  |  |
| NCCSSCCN [Cystamine] | 220 |  |  |
| Br.CC(NC(=O)C(N)Cc1ccccc1)C(=O)OCc1ccccc1 [Compound 14, L--Phe--L--Ala--OBz.HBr] |  | 70 |  |
| Br.NCCCC[C@H](NC(=O)[C@@H](N)Cc1c[nH]c2ccccc12)C(=O)OCc1ccccc1 [Compound 15, L--Try--Lys--OBz.HBr] (HELM PEPTIDE1{W.K.[c1ccc(CO[*:1])cc1]}$$$$V2.0) |  | 70 |  |
| Cl.N[C@@H](Cc1c[nH]c2ccccc12)C(=O)OCc1ccccc1 [Compound 3, L--Try--OBz.HCl] |  |  | Percentage of Normal Cells ([2]; 0.5 mM of compound): 95%; moles of compound to one mole of HbS at which gelation of HbS is inhibited [3]: 4 moles to one mole HbS |
| N[C@@H](Cc1ccccc1)C(=O)O [Compound 18, L--Phe, reference compound] |  | 0 |  |
